Laboratory results from patent US20160038474A1, “COMPOSITIONS AND METHODS FOR THE MODULATION OF HEMOGLOBIN (S)” (GLOBAL BLOOD THERAPEUTICS, INC., priority 2013, published 2016).

What was measured:
[1] = system: hemoglobin and human serum albumin; experiment: In vitro binding to hemoglobin and human serum albumin at physiologic ratio; settings: both proteins present in their respective physiologic ratio
Description: However, when the red blood cell compartment is considered, compound 12 unexpectedly partitions into blood to a far greater extent than compound 22 or compound 23. […] When the red blood cell/plasma ratio was measured at the peak concentration, compound 12 partitioned at a ratio of 70 to 1 into the erythrocytes attesting to its preferential partition into the compartment which contains the drug target hemoglobin. Supportive data was reported in an in vitro system measuring binding of compound 12 to hemoglobin and human serum albumin.

[2] = system: washed red blood cells; experiment: Reverse Hemox assay (OEC), washed red blood cells; assay type: cell-based, human
Description: Oxygen Equilibrium Curves (OEC) of whole blood before and after treatment with different concentrations of compounds 12, 22 and 23 were performed as follows using a HEMOX analyzer (TCS Scientific, New Hope, Pa.). Blood samples from homozygous sickle cell patients were obtained though the Hemoglobinopathy Center at Children's Hospital Oakland Research Institute (CHORI) with Institutional Review Board approval. The hematocrit was adjusted to 20% using autologous plasma and the blood samples were incubated for 1 hour at 37° C. in absence or presence of compounds. 100 μl of these samples were added to 5 mL of Hemox butter (30 mM TES, 130 mM NaCl, 5 mM KCl, pH=7.4) at 37° C. and then transferred to the Hemox sample chamber. The samples were saturated with oxygen by flushing with compressed air for 10 minutes. The samples were then flushed with pure nitrogen and the respective absorbances of oxy- and deoxy-Hb are recorded as a function of the solution pO2. The oxygen equilibrium data were then fitted to the Hill Model to obtain values for p50. The deoxygenation curves for both whole blood alone (control) and whole blood in the presence of the compound were collected with the TCS software.
Reverse hemox assay was performed essentially as described in Example 2, above, using either washed red blood cells or whole blood.
Results: Table 4, below, indicates the percent change in p50 (delta p50%) for each compound tested. In the washed red blood cells (RBCs), 5-HMF, compound 5, and compound 12 (1 mM compound) gave p50 of 20, 9 and 7 mm Hg, respectively, compared to the control red blood cells (delta p50=30 mm Hg). To determine the effects of plasma proteins on compound activity. OECs were measured in whole blood from sickle cell disease patients. 5-HMF, compound 5, compound 9, and compound 12 gave p50 of 27, 18, 11 and 6 mm Hg, respectively, compared to the control blood p50 of 30 mm Hg.

[3] = molecular target: T1, purified HbS (Homo sapiens, UniProt P68871+P69905, E7V); experiment: HbS polymerization assay; assay type: biochemical; settings: for Polymerization DTcmpd-DTHbS: [HbS] 50 μM
T1 construct: HbS is purified by the CRO VIRUSYS, from blood obtained from homozygous sickle cell patients; tissue VIRUSYS (CRO that did the purification); host or cells: blood of homozygous sickle cell patients
Description: Polymerization assays are carried out in vitro using purified HbS exchanged into 1.8 M potassium phosphate buffer at pH 7.4. Using a slightly modified protocol (Antonini and Brunori, 1971). HbS is purified by the CRO VIRUSYS, from blood obtained from homozygous sickle cell patients through the Hemoglobinopathy Center at Children's Hospital Oakland Research Institute (CHORI) with Institutional Review Board approval. Compounds are prepared in 100% DMSO and a desired amount is added to 50 μM of purified HbS at a final DMSO concentration of 0.3%. Final potassium phosphate concentration is adjusted to 1.8 M using a combination of 2.5 M potassium phosphate stock solution and water at pH 7.4. The reaction mixture is incubated for an hour at 37° C. and then transferred into a 24-well plate for deoxygenation in a glove box containing 99.5% nitrogen and 0.5% oxygen. The 24-well plate is not covered and incubated at 4° C. on a plate cooler inside the glove box for one and a half hours. Fifty μl of the reaction mixture is transferred into a 96-well plate and the absorbance at 700 nm is measured every minute for one hour at 37° C. in a plate reader located inside the glove box. A plot of the absorbance against time is fitted using a Boltzman sigmoidal fit and the delay time (from zero to time at half Vmax) is measured. To compare and rank compounds, delay times are expressed as percent delay (% DT), which is defined as the difference in delay times for HbS/compound and HbS alone multiplied by 100 and divided by the delay time for HbS alone.
The ability of 5-HMF and compound 12 to delay HbS polymerization was evaluated as described in Example 2, above. Purified HbS (50 μM) was pre-incubated with 25 μM, 50 μM, or 100 μM of 5-HMF or compound 12, then passively de-oxygenated at 4° C. in 1.8 M potassium phosphate. Polymerization was induced via temperature jump from 4° C. to 37° C. Polymerization was quantified based on turbidity of the HbS solution under continued hypoxia.

[4] = molecular target: HbS (Homo sapiens, UniProt P68871+P69905, E7V); experiment: 96-well oxygen dissociation assay (ODA); assay type: biochemical
Description: Results: Table 4 below lists the change in oxygen affinity (Δoxy state). After two hours of passive deoxygenation, compound 12, at an equimolar concentration to Hb, increased the Hb oxygen affinity by 6-fold.

[5] = molecular target: purified Hb (Homo sapiens, UniProt P68871+P69905); experiment: TCS Hemox analyzer with purified Hb; assay type: biochemical; settings: purified Hb 25 μM
Description: The agents were then assayed in a TCS Hemox analyzer using purified Hb at 25 μM.

[6] = system: sickle cell disease patient whole blood (ssRBCs); experiment: Viscosity assay, hypoxic sickle cell blood; assay type: cell-based, human; settings: for Viscosity (ΔcP): [Hb] 1.5 mM, two hours of hypoxia
Description: Sickle cell disease patients develop anemia as a means for the circulatory system to compensate for increase in blood viscosity caused by the non-deformable sickle cell red blood cells (ssRBCs). The effects of 5-HMF, compound 5, compound 9, or compound 12 were tested on sickle cell disease patient blood rheology to determine if these compounds decrease the viscosity of ssRBCs that have undergone hypoxia. Using blood from patients with sickle cell disease, whole blood (30% hematocrit, ˜1.5 mM Hb) was incubated with 5-HMF, compound 5, compound 9, or compound 12 during exposure to two hours of hypoxia (2.4% 02). A cone-plate viscometer was used to measure the viscosity at shear rates ranging from 60 s^−1 to 415 s^−1.

SMILES: CC(C)n1nccc1-c1ncccc1COc1cccc(O)c1C=O [Compound 12, 2-hydroxy-6-[[2-(2-propan-2-ylpyrazol-3-yl)pyridin-3-yl]methoxy] benzaldehyde]
- binding preference, hemoglobin versus human serum albumin [1]: preferentially binding to hemoglobin
- Washed RBC OEC (delta p50%) ([2]; [Hb] 1 mM, [cmp] 1 mM): 76%
- p50 ([2]; washed RBCs, 1 mM compound, control 30 mm Hg): 7 mm Hg
- Polymerization % DT (class) ([3]; 75 μM compound, 50 μM HbS): †† (activity >80% but ≦120%)
- Polymerization % DT (percent delay) ([3]; 75 μM compound, 50 μM HbS): 108.56%
- HbS polymerization delay (in words) ([3]; HbS 50 μM, 25, 50 or 100 μM compound): delayed HbS polymerization in a dose-dependent manner
- Polymerization DTcmpd-DTHbS ([3]; [Cmpd] 25 μM): 3.9 min
- Polymerization DTcmpd-DTHbS ([3]; [Cmpd] 50 μM): 12.8 min
- Polymerization DTcmpd-DTHbS ([3]; [Cmpd] 100 μM): 22.9 min
- potency at increasing the oxygen affinity of HbS compared with 5-HMF ([4]; 96-well ODA): more potent at increasing the oxygen affinity of HbS than 5-hydroxy furfural
- Hb in ODA (Δoxy state) ([4]; [Hb] 3 μM, [cmp] 3 μM): 56
- increase of Hb oxygen affinity ([4]; equimolar concentration to Hb, after two hours of passive deoxygenation): 6 fold
- improvement of oxygen affinity versus Hb control ([5]; compound:Hb ratio of 1:3): 15%
- improvement of oxygen affinity versus Hb control ([5]; stoichiometric concentrations): greater than 70%
- Viscosity (ΔcP) ([6]; [cmp] 1.6 mM): 2.0 cP
- Viscosity (ΔcP) ([6]; [cmp] 8 mM): >2.4 cP
- blood viscosity ([6]; equimolar compound, hypoxia, 6.33 cP without compound): 4.32 cP
